{"source": "patent US4921873A", "about": "“Antiviral and antitumor cyclohexadienone compositions” (Harbor Branch Oceanographic Institution, Inc., priority 1985, dated 1990)", "key": {"cells": {"system": "cells", "test": "Zone of cytotoxicity in antiviral disk assay", "format": "cell-based", "details": "read at Day 5", "procedure": "The following assay method was utilized to illustrate the antiviral effectiveness of the compound of Formula II.\n(11) For assay, add 1×10^6 cells to each well (6 wells per culture dish). Bring each well to 2 ml with fresh medium.\n(4) Add 2 ml MC-4000 to each well.\n(5) Place disks on surface and push through (1 mg/disc, 0.5 mg/disc, 0.25 mg/disc, etc. for crude extracts).\n(1) Add 2 ml neutral red medium."}, "[1]": {"system": "L-1210 murine leukemia cells", "test": "L-1210 mouse leukemia cell cytotoxicity assay", "format": "cell-based", "details": "L-1210, at 200 μg/ml, in vitro", "procedure": "The following assay method was utilized to illustrate the antitumor effectiveness of the compounds of formulas II, IV, V, VI and VII.\nL1210 And P388 MOUSE LEUKEMIA CELL CYTOXICITY ASSAY 24-WELL PLATE SCREENING ASSAY AND TUBE ASSAY PROTOCOL\nMedia--Dulbeccos with glucose and pyruvate (Biologos, Inc) with 10% horse serum, (Biologos, Inc) and 1.0 μg/ml gentamicin (Gibco). Cells--L1210 and P-388 mouse leukemia cells (American Type Culture Collection) in media at a concentration of 5×10^4 cells/ml. Sterile 24-well culture plates (Nunc) for screening or 12×75 mm glass culture tubes (Becton-Dickinson) for tube assay. Microdispenser with 1 to 5 μl increments (Drummond Scientific Co. Broomall Pa). Finnpipette with […] and Finnpipette with 50 to 200 μl increments.\n1. A sample of the composition to be assayed is added to each well or tube in an amount of from 200 μg/ml and 100 μg/ml for screening. For DDC of known active compounds use log concentrations from 100 μg/ml to 0.01 μg/ml for range-finding assay; when range has been determined, use five concentrations between highest and lowest active concentrations.\n2. Add 2.0 ml of 5×10^4 cell suspension in media to each well or tube. Tubes are loosely covered with parafilm.\n3. Incubate in 5% CO2 incubator 48 hours.\n4. Visually read plates with inverted microscope, comparing with solvent control. Assign activity as follows: […]"}, "HSV-I": {"system": "HSV-I", "test": "HSV-I plaque inhibition disk assay (antiviral effectiveness)", "format": "cell-based, herpes simplex-I", "parameters": "key to inhibition of plaque formation: +++: complete inhibition; ++: a few plaques around the outside of well; +: definite inhibition; +/-: questionable inhibition; -: no inhibition", "procedure": "The following assay method was utilized to illustrate the antiviral effectiveness of the compound of Formula II. (1) Remove 75 cm^2 culture flasks from incubator (these were plated the previous week). (11) For assay, add 1×10^6 cells to each well (6 wells per culture dish). Bring each well to 2 ml with fresh medium. (1) Aspirate medium. (2) Add 0.5 of medium containing 200 pfu HSV-I. (3) Incubate […] with a small amount of shaking. (4) Add 2 ml MC-4000 to each well. (5) Place disks on surface and push through (1 mg/disc, 0.5 mg/disc, 0.25 mg/disc, etc. for crude extracts). (6) Incubate 48 hr. (making sure dishes remain level). Day 4: (1) Add 2 ml neutral red medium. (2) Incubate overnight."}, "[2]": {"test": "Stability of isolated alcohol derivative at room temperature", "format": "physicochemical"}}, "data": [{"smiles": "CC(=O)OCC(Cl)C1=CC(C)(C)C=CC1=O", "note": "(stereo not drawn) [Formula II]", "values": [{"measurement": "zone of cytotoxicity (diameter)", "setting": "cells", "result": 16, "unit": "mm"}, {"measurement": "viability at 200 µg/mL", "setting": "[1]; Mus musculus, L1210, 48 h, read-out: survival", "result": 100, "unit": "%"}, {"measurement": "inhibition of plaque formation", "setting": "HSV-I; 200 pfu, read at Day 5", "result": "++"}, {"measurement": "antiviral activity", "setting": "HSV-I; results at Day 5, in words", "result": "definite antiviral activity"}]}, {"smiles": "CC1(C)C=CC(=O)C(C(Cl)CO)=C1", "note": "(stereo not drawn) [Formula VIII]", "values": [{"measurement": "decomposition time", "setting": "[2]", "result": "two"}]}, {"smiles": "CC1(C)C=CC(=O)C(C2CO2)=C1", "note": "(stereo not drawn) [Formula VII]", "values": [{"measurement": "survival", "setting": "[1]; 48 hours, 2880 min", "result": 28, "unit": "%"}]}]}
